According to PubChem BioAssay AID1259407 (Chemical Carcinogenesis Research Information System (CCRIS), 2018):
Activity calls are given as the source filed them. The rule behind the calls is not given here.

Test system: CCRIS mutagenicity, Ames/micronucleus/aberration tests
Assay: CCRIS mutagenicity studies
[1] = Test System: AMES SALMONELLA TYPHIMURIUM, Strain/Indicator: TA1535, Metabolic Activation: HAMSTER, LIVER, S-9, AROCLOR 1254, Method: STANDARD PLATE
[2] = Test System: AMES SALMONELLA TYPHIMURIUM, Strain/Indicator: TA1535, Metabolic Activation: NONE, Method: STANDARD PLATE
[3] = Test System: AMES SALMONELLA TYPHIMURIUM, Strain/Indicator: TA98, Metabolic Activation: RAT, LIVER, S-9, AROCLOR 1254, Method: PREINCUBATION
[4] = Test System: MOUSE LYMPHOMA, Strain/Indicator: L5178Y (TK+/TK-), Metabolic Activation: NONE, Method: SUSPENSION/PLATE
[5] = Test System: MOUSE LYMPHOMA, Strain/Indicator: L5178Y (TK+/TK-), Metabolic Activation: RAT, LIVER, S-9, Method: SUSPENSION/PLATE
[6] = Test System: AMES SALMONELLA TYPHIMURIUM, Strain/Indicator: TA98, Metabolic Activation: NONE, Method: STANDARD PLATE
[7] = Test System: AMES SALMONELLA TYPHIMURIUM, Strain/Indicator: TA98, Metabolic Activation: RAT, LIVER, S-9, AROCLOR 1254, Method: STANDARD PLATE
[8] = Test System: AMES SALMONELLA TYPHIMURIUM, Strain/Indicator: TA100, Metabolic Activation: NONE, Method: STANDARD PLATE
[9] = Test System: AMES SALMONELLA TYPHIMURIUM, Strain/Indicator: TA100, Metabolic Activation: RAT, LIVER, S-9, AROCLOR 1254, Method: STANDARD PLATE
[10] = Test System: AMES SALMONELLA TYPHIMURIUM, Strain/Indicator: TA1537, Metabolic Activation: NONE, Method: STANDARD PLATE
[11] = Test System: AMES SALMONELLA TYPHIMURIUM, Strain/Indicator: TA1538, Metabolic Activation: NONE, Method: STANDARD PLATE
[12] = Test System: AMES SALMONELLA TYPHIMURIUM, Strain/Indicator: TA97, Metabolic Activation: NONE, Method: STANDARD PLATE

CN(Cc1ccc([N+](=O)[O-])cc1)N=O
mutagenic call [1]: active; positive
mutagenic call [2]: inactive; negative

Nc1nc2ccc(Cl)cc2[nH]1
mutagenic call [3]: inactive; negative
mutagenic call (Test System: AMES SALMONELLA TYPHIMURIUM, Strain/Indicator: TA100, Metabolic Activation: RAT, LIVER, S-9, AROCLOR 1254, Method: PREINCUBATION): inactive; negative

C=CC
mutagenic call [4]: inactive; negative
mutagenic call [5]: inactive; negative

O=C(NCO)c1ccc(Cl)cc1
mutagenic call (Test System: AMES SALMONELLA TYPHIMURIUM, Strain/Indicator: TA100, Metabolic Activation: RAT, LIVER, S-9, AROCLOR AND 3'-PHOSPHOADENOSINE-5'-PHOSPHOSULPHATE GENERATING SYSTEM, Method: PREINCUBATION): inactive; negative
mutagenic call (Test System: AMES SALMONELLA TYPHIMURIUM, Strain/Indicator: TA100, Metabolic Activation: RAT, LIVER, S-9, AROCLOR AND ACETYL COENZYME A, Method: PREINCUBATION): inactive; negative
mutagenic call (Test System: AMES SALMONELLA TYPHIMURIUM, Strain/Indicator: TA100, Metabolic Activation: RAT, LIVER, S-9, AROCLOR, Method: PREINCUBATION): inactive; negative

Nc1nc(F)nc2c1ncn2[C@@H]1O[C@H](CO)[C@@H](O)[C@@H]1O
mutagenic call (Test System: CHINESE HAMSTER OVARY, Strain/Indicator: CHO/6-THIOGUANINE, Metabolic Activation: NONE): active; positive

Cc1ccccc1NO
mutagenic call [6]: inactive; negative
mutagenic call [3]: inactive; negative
mutagenic call [7]: inactive; negative
mutagenic call [8]: inactive; negative
mutagenic call [9]: active; positive
mutagenic call (Test System: AMES SALMONELLA TYPHIMURIUM, Strain/Indicator: TA100, Metabolic Activation: RAT, LIVER, S-9, PCB, Method: PREINCUBATION): active; positive

C[Si]1(C)O[Si](C)(C)O[Si](C)(C)O1
mutagenic call [6]: inactive; negative
mutagenic call (Test System: AMES SALMONELLA TYPHIMURIUM, Strain/Indicator: TA98, Metabolic Activation: RAT LIVER S-9, AROCLOR 1254, Method: STANDARD PLATE): inactive; negative
mutagenic call [8]: inactive; negative
mutagenic call (Test System: AMES SALMONELLA TYPHIMURIUM, Strain/Indicator: TA100, Metabolic Activation: RAT LIVER S-9, AROCLOR 1254, Method: STANDARD PLATE): inactive; negative
mutagenic call [2]: inactive; negative
mutagenic call (Test System: AMES SALMONELLA TYPHIMURIUM, Strain/Indicator: TA1535, Metabolic Activation: RAT LIVER S-9, AROCLOR 1254, Method: STANDARD PLATE): inactive; negative
mutagenic call [10]: inactive; negative
mutagenic call (Test System: AMES SALMONELLA TYPHIMURIUM, Strain/Indicator: TA1537, Metabolic Activation: RAT LIVER S-9, AROCLOR 1254, Method: STANDARD PLATE): inactive; negative
mutagenic call [11]: inactive; negative
mutagenic call (Test System: AMES SALMONELLA TYPHIMURIUM, Strain/Indicator: TA1538, Metabolic Activation: RAT LIVER S-9, AROCLOR 1254, Method: STANDARD PLATE): inactive; negative
mutagenic call (Test System: E. COLI, Strain/Indicator: P3078 POLA, Metabolic Activation: NONE, Method: SPOT TEST): inactive; negative
mutagenic call (Test System: E. COLI, Strain/Indicator: P3078 POLA, Metabolic Activation: RAT LIVER S-9, AROCLOR 1254, Method: SPOT TEST): inactive; negative
mutagenic call (Test System: E. COLI, Strain/Indicator: W3110, Metabolic Activation: NONE, Method: SPOT TEST): inactive; negative
mutagenic call (Test System: E. COLI, Strain/Indicator: W3110, Metabolic Activation: RAT LIVER S-9, AROCLOR 1254, Method: SPOT TEST): inactive; negative
mutagenic call [4]: inactive; negative
mutagenic call [5]: inactive; negative

[S]=[Pb]
mutagenic call (Test System: CHINESE HAMSTER V-79, Strain/Indicator: V-79/6-THIOGUANINE, Metabolic Activation: NONE, Method: STANDARD PLATE): active; positive

CCc1ccc2c3c(cccc13)-c1ccccc1-2
mutagenic call [6]: inactive; negative
mutagenic call (Test System: AMES SALMONELLA TYPHIMURIUM, Strain/Indicator: TA98, Metabolic Activation: RAT, LIVER, S-9, AROCLOR 1254 (4%), Method: STANDARD PLATE): inactive; negative

O=C(O)c1cc(=O)c2c(OCC(O)COc3cccc4oc(C(=O)O)cc(=O)c34)cccc2o1
mutagenic call (Test System: AMES SALMONELLA TYPHIMURIUM, Strain/Indicator: TA97, Metabolic Activation: HAMSTER, LIVER, S-9, AROCLOR 1254, Method: STANDARD PLATE): inactive; negative
mutagenic call [12]: inactive; negative
mutagenic call (Test System: AMES SALMONELLA TYPHIMURIUM, Strain/Indicator: TA97, Metabolic Activation: RAT, LIVER, S-9, AROCLOR 1254, Method: STANDARD PLATE): inactive; negative
mutagenic call (Test System: AMES SALMONELLA TYPHIMURIUM, Strain/Indicator: TA98, Metabolic Activation: HAMSTER, LIVER, S-9, AROCLOR 1254 (2.5-20%), Method: STANDARD PLATE): inactive; negative
mutagenic call (Test System: AMES SALMONELLA TYPHIMURIUM, Strain/Indicator: TA98, Metabolic Activation: HAMSTER, LIVER, S-9, AROCLOR 1254, Method: STANDARD PLATE): inactive; negative
mutagenic call [6]: inactive; negative
mutagenic call (Test System: AMES SALMONELLA TYPHIMURIUM, Strain/Indicator: TA98, Metabolic Activation: RAT, LIVER, S-9, AROCLOR 1254 (2.5-20%), Method: STANDARD PLATE): inactive; negative
mutagenic call [7]: inactive; negative
mutagenic call (Test System: AMES SALMONELLA TYPHIMURIUM, Strain/Indicator: TA100, Metabolic Activation: HAMSTER, LIVER, S-9, AROCLOR 1254, Method: STANDARD PLATE): inactive; negative
mutagenic call [8]: inactive; negative
mutagenic call [9]: inactive; negative
mutagenic call [1]: inactive; negative
mutagenic call [2]: inactive; negative
mutagenic call (Test System: AMES SALMONELLA TYPHIMURIUM, Strain/Indicator: TA1535, Metabolic Activation: RAT, LIVER, S-9, AROCLOR 1254, Method: STANDARD PLATE): inactive; negative
mutagenic call (Test System: AMES SALMONELLA TYPHIMURIUM, Strain/Indicator: TA1537, Metabolic Activation: HAMSTER, LIVER, S-9, AROCLOR 1254, Method: STANDARD PLATE): inactive; negative
mutagenic call [10]: inactive; negative
mutagenic call (Test System: AMES SALMONELLA TYPHIMURIUM, Strain/Indicator: TA1537, Metabolic Activation: RAT, LIVER, S-9, AROCLOR 1254, Method: STANDARD PLATE): inactive; negative
mutagenic call (Test System: AMES SALMONELLA TYPHIMURIUM, Strain/Indicator: TA1538, Metabolic Activation: HAMSTER, LIVER, S-9, AROCLOR 1254 (2.5-20%), Method: STANDARD PLATE): inactive; negative
mutagenic call (Test System: AMES SALMONELLA TYPHIMURIUM, Strain/Indicator: TA1538, Metabolic Activation: HAMSTER, LIVER, S-9, AROCLOR 1254, Method: STANDARD PLATE): inactive; negative
mutagenic call [11]: inactive; negative
mutagenic call (Test System: AMES SALMONELLA TYPHIMURIUM, Strain/Indicator: TA1538, Metabolic Activation: RAT, LIVER, S-9, AROCLOR 1254 (2.5-20%), Method: STANDARD PLATE): inactive; negative
mutagenic call (Test System: AMES SALMONELLA TYPHIMURIUM, Strain/Indicator: TA1538, Metabolic Activation: RAT, LIVER, S-9, AROCLOR 1254, Method: STANDARD PLATE): inactive; negative
mutagenic call [4]: inactive; negative; reevaluation of results: negative
mutagenic call (Test System: MOUSE LYMPHOMA, Strain/Indicator: L5178Y (TK+/TK-), Metabolic Activation: RAT, LIVER, S-9, AROCLOR 1254, Method: SUSPENSION/PLATE): inactive; negative. reevaluation of results: negative

Cc1c(C)c2c(N)c3ccccc3nc2c2ccccc12
mutagenic call (Test System: AMES SALMONELLA TYPHIMURIUM, Strain/Indicator: TA97, Metabolic Activation: NONE, Method: PREINCUBATION): active; positive
mutagenic call [12]: active; positive
mutagenic call (Test System: AMES SALMONELLA TYPHIMURIUM, Strain/Indicator: TA98, Metabolic Activation: NONE, Method: PREINCUBATION): active; positive
mutagenic call (Test System: AMES SALMONELLA TYPHIMURIUM, Strain/Indicator: TA1537, Metabolic Activation: NONE, Method: PREINCUBATION): inactive; negative
mutagenic call [10]: active; positive
